For four molecules, MIC and ED50 results are on record in ChEMBL document CHEMBL1126257, “Fluoronaphthyridines and -quinolones as antibacterial agents. 5. Synthesis and antimicrobial activity of chiral 1-tert-butyl-6-fluoro-7-substituted-naphthyridones” (J Med Chem, 1992).

Values after ≈ are worked out from the molar mass of the structure shown.

The first test concerns Morganella morganii. Nature of the test: In vitro antibacterial activity against Morganella morganii A 15153. Type of test: functional.
Settings: not given
On to `C[C@@H]1C[C@@H](N)CN1c1nc2c(cc1F)c(=O)c(C(=O)O)cn2C(C)(C)C` (stereo in doubt; 67), for which the MIC was found to be 4 mg/L (≈ 11 µM).

As for `C[C@@H]1C[C@@H](N)CN1c1nc2c(cc1F)c(=O)c(C(=O)O)cn2C(C)(C)C` (stereo in doubt; 68), the MIC came to 0.25 mg/L (≈ 0.69 µM).

Staying with this test, now noted: Morganella morganii; read-out: MIC.
Consider `C[C@H]1CN(c2nc3c(cc2F)c(=O)c(C(=O)O)cn3C(C)(C)C)C[C@H]1N`, for which the MIC came out at 0.13 mg/L (≈ 0.359 µM).

Consider `C[C@H]1CN(c2nc3c(cc2F)c(=O)c(C(=O)O)cn3C(C)(C)C)C[C@@H]1N`, for which the MIC stood at 0.25 mg/L (≈ 0.69 µM).

The subject of the next test is Staphylococcus aureus. Nature of the test: animal or person. The following applies: in Mus musculus, po, read-out: PD50.
Description: In vivo potency on systemic infection caused by Staphylococcus aureus A9537 after oral administration to mice expressed as median protective dose.
On to `C[C@H]1CN(c2nc3c(cc2F)c(=O)c(C(=O)O)cn3C(C)(C)C)C[C@H]1N`, for which the ED50 was 1 mg/kg.

On to `C[C@@H]1C[C@@H](N)CN1c1nc2c(cc1F)c(=O)c(C(=O)O)cn2C(C)(C)C` (stereo in doubt; 68), for which the ED50 amounted to 0.9 mg/kg.

The test system of another test is Klebsiella pneumoniae. Description: In vitro antibacterial activity against Klebsiella pneumoniae A 9664. In kind it is functional.
Settings: not given
The molecule `C[C@@H]1C[C@@H](N)CN1c1nc2c(cc1F)c(=O)c(C(=O)O)cn2C(C)(C)C` (stereo in doubt; 67) gave an MIC of 0.5 µg/mL (≈ 1.38 µM).

The same test, now with this note: Klebsiella pneumoniae; read-out: MIC.
As to `C[C@H]1CN(c2nc3c(cc2F)c(=O)c(C(=O)O)cn3C(C)(C)C)C[C@H]1N`, the MIC turned out to be 0.5 µg/mL (≈ 1.38 µM).

For the molecule `C[C@H]1CN(c2nc3c(cc2F)c(=O)c(C(=O)O)cn3C(C)(C)C)C[C@@H]1N`, the MIC worked out at 0.25 µg/mL (≈ 0.69 µM).

As for `C[C@@H]1C[C@@H](N)CN1c1nc2c(cc1F)c(=O)c(C(=O)O)cn2C(C)(C)C` (stereo in doubt; 68), the MIC was 0.5 µg/mL (≈ 1.38 µM).

In the next test the test system is Enterococcus faecium. Description: In vitro antibacterial activity against Enterococcus faecium A 24885. Type of test: functional.
Settings: not given
As to `C[C@@H]1C[C@@H](N)CN1c1nc2c(cc1F)c(=O)c(C(=O)O)cn2C(C)(C)C` (stereo in doubt; 67), the MIC worked out at 8 mg/L (≈ 22.1 µM).

The molecule `C[C@@H]1C[C@@H](N)CN1c1nc2c(cc1F)c(=O)c(C(=O)O)cn2C(C)(C)C` (stereo in doubt; 68) returned an MIC of 0.5 mg/L (≈ 1.38 µM).

The same test, now with this note: Enterococcus faecium; read-out: MIC.
In the case of `C[C@H]1CN(c2nc3c(cc2F)c(=O)c(C(=O)O)cn3C(C)(C)C)C[C@H]1N`, the MIC was determined as 1 mg/L (≈ 2.76 µM).

As for `C[C@H]1CN(c2nc3c(cc2F)c(=O)c(C(=O)O)cn3C(C)(C)C)C[C@@H]1N`, the MIC amounted to 4 mg/L (≈ 11 µM).

The test system of another test is Pseudomonas aeruginosa. Description: (§1) In vivo potency on systemic infection caused by after oral administration to mice expressed as median protective dose. Type of test: functional. The following applies: read-out: PD50.
Regarding `C[C@H]1CN(c2nc3c(cc2F)c(=O)c(C(=O)O)cn3C(C)(C)C)C[C@H]1N`, the ED50 worked out at 4.7 mg/kg.

Regarding `C[C@@H]1C[C@@H](N)CN1c1nc2c(cc1F)c(=O)c(C(=O)O)cn2C(C)(C)C` (stereo in doubt; 68), the ED50 stood at 14.4 mg/kg.

Another test relates to Klebsiella pneumoniae. The test is described as §1. In kind it is functional. The following applies: read-out: PD50.
For `C[C@H]1CN(c2nc3c(cc2F)c(=O)c(C(=O)O)cn3C(C)(C)C)C[C@H]1N`, the ED50 worked out at 3.9 mg/kg.

For `C[C@@H]1C[C@@H](N)CN1c1nc2c(cc1F)c(=O)c(C(=O)O)cn2C(C)(C)C` (stereo in doubt; 68), the ED50 is 8.2 mg/kg.

In a further test the test system is Escherichia coli. Described as §1. Type of test: functional. The settings on record: read-out: PD50.
Take `C[C@H]1CN(c2nc3c(cc2F)c(=O)c(C(=O)O)cn3C(C)(C)C)C[C@H]1N`: the ED50 was determined as 1.4 mg/kg.

On to `C[C@@H]1C[C@@H](N)CN1c1nc2c(cc1F)c(=O)c(C(=O)O)cn2C(C)(C)C` (stereo in doubt; 68), for which the ED50 amounted to 2.6 mg/kg.

Another test relates to Enterobacter cloacae. Nature of the test: In vitro antibacterial activity against Enterobacter cloacae A 9656. In kind it is functional.
Settings: not given
`C[C@@H]1C[C@@H](N)CN1c1nc2c(cc1F)c(=O)c(C(=O)O)cn2C(C)(C)C` (stereo in doubt; 67) displayed an MIC of 0.5 mg/L (≈ 1.38 µM).

As to `C[C@@H]1C[C@@H](N)CN1c1nc2c(cc1F)c(=O)c(C(=O)O)cn2C(C)(C)C` (stereo in doubt; 68), the MIC worked out at 0.13 mg/L (≈ 0.359 µM).

Still in this test, the particulars now being: Enterobacter cloacae; read-out: MIC.
As to `C[C@H]1CN(c2nc3c(cc2F)c(=O)c(C(=O)O)cn3C(C)(C)C)C[C@H]1N`, the MIC is 0.13 mg/L (≈ 0.359 µM).

Consider `C[C@H]1CN(c2nc3c(cc2F)c(=O)c(C(=O)O)cn3C(C)(C)C)C[C@@H]1N`, for which the MIC is 0.03 mg/L (≈ 0.0828 µM).

The next test has as its system Escherichia coli. Description: In vitro antibacterial activity against Escherichia coli A 15119. Type of test: functional.
Settings: not given
As for `C[C@@H]1C[C@@H](N)CN1c1nc2c(cc1F)c(=O)c(C(=O)O)cn2C(C)(C)C` (stereo in doubt; 67), the MIC came out at 0.25 mg/L (≈ 0.69 µM).

With `C[C@@H]1C[C@@H](N)CN1c1nc2c(cc1F)c(=O)c(C(=O)O)cn2C(C)(C)C` (stereo in doubt; 68), the MIC was found to be 0.016 mg/L (≈ 0.0441 µM).

Staying with this test, now noted: Escherichia coli; read-out: MIC.
Consider `C[C@H]1CN(c2nc3c(cc2F)c(=O)c(C(=O)O)cn3C(C)(C)C)C[C@H]1N`, for which the MIC is 0.016 mg/L (≈ 0.0441 µM).

On to `C[C@H]1CN(c2nc3c(cc2F)c(=O)c(C(=O)O)cn3C(C)(C)C)C[C@@H]1N`, for which the MIC came out at 0.06 mg/L (≈ 0.166 µM).

In another test the test system is Pseudomonas aeruginosa. Description: In vitro antibacterial activity against Pseudomonas aeruginosa A 9243. In kind it is functional.
Settings: not given
Take `C[C@@H]1C[C@@H](N)CN1c1nc2c(cc1F)c(=O)c(C(=O)O)cn2C(C)(C)C` (stereo in doubt; 67): the MIC was 16 mg/L (≈ 44.1 µM).

Turning to `C[C@@H]1C[C@@H](N)CN1c1nc2c(cc1F)c(=O)c(C(=O)O)cn2C(C)(C)C` (stereo in doubt; 68), the MIC turned out to be 0.5 mg/L (≈ 1.38 µM).

Staying with this test, now noted: Pseudomonas aeruginosa; read-out: MIC.
`C[C@H]1CN(c2nc3c(cc2F)c(=O)c(C(=O)O)cn3C(C)(C)C)C[C@H]1N`: the MIC stood at 1 mg/L (≈ 2.76 µM).

`C[C@H]1CN(c2nc3c(cc2F)c(=O)c(C(=O)O)cn3C(C)(C)C)C[C@@H]1N`: the MIC amounted to 2 mg/L (≈ 5.52 µM).

In another test the test system is Staphylococcus aureus. Description: In vitro antibacterial activity against Staphylococcus aureus A9537. In kind it is functional.
Settings: not given
As to `C[C@@H]1C[C@@H](N)CN1c1nc2c(cc1F)c(=O)c(C(=O)O)cn2C(C)(C)C` (stereo in doubt; 67), the MIC was 0.13 mg/L (≈ 0.359 µM).

The molecule `C[C@@H]1C[C@@H](N)CN1c1nc2c(cc1F)c(=O)c(C(=O)O)cn2C(C)(C)C` (stereo in doubt; 68) showed an MIC of 0.002 mg/L (≈ 0.00552 µM).

Still in this test, the particulars now being: Staphylococcus aureus; read-out: MIC.
For the molecule `C[C@H]1CN(c2nc3c(cc2F)c(=O)c(C(=O)O)cn3C(C)(C)C)C[C@H]1N`, the MIC is 0.008 mg/L (≈ 0.0221 µM).

Turning to `C[C@H]1CN(c2nc3c(cc2F)c(=O)c(C(=O)O)cn3C(C)(C)C)C[C@@H]1N`, the MIC was found to be 0.015 mg/L (≈ 0.0414 µM).

The next test relates to Enterococcus faecalis. Description: In vitro antibacterial activity against Enterococcus faecalis A9809. Type of test: functional.
Settings: not given
Turning to `C[C@@H]1C[C@@H](N)CN1c1nc2c(cc1F)c(=O)c(C(=O)O)cn2C(C)(C)C` (stereo in doubt; 67), the MIC is 1 mg/L (≈ 2.76 µM).

In turn, `C[C@@H]1C[C@@H](N)CN1c1nc2c(cc1F)c(=O)c(C(=O)O)cn2C(C)(C)C` (stereo in doubt; 68) had an MIC of 0.03 mg/L (≈ 0.0828 µM).

Staying with this test, now noted: Enterococcus faecalis; read-out: MIC.
In the case of `C[C@H]1CN(c2nc3c(cc2F)c(=O)c(C(=O)O)cn3C(C)(C)C)C[C@H]1N`, the MIC came out at 0.25 mg/L (≈ 0.69 µM).

For the molecule `C[C@H]1CN(c2nc3c(cc2F)c(=O)c(C(=O)O)cn3C(C)(C)C)C[C@@H]1N`, the MIC came out at 0.25 mg/L (≈ 0.69 µM).

Another test concerns Serratia marcescens. Description: In vitro antibacterial activity against Serratia marcescens A 20019.
Settings: not given
In kind it is functional.
Molecule `C[C@@H]1C[C@@H](N)CN1c1nc2c(cc1F)c(=O)c(C(=O)O)cn2C(C)(C)C` (stereo in doubt; 67) had an MIC of 2 mg/L (≈ 5.52 µM).

On to `C[C@@H]1C[C@@H](N)CN1c1nc2c(cc1F)c(=O)c(C(=O)O)cn2C(C)(C)C` (stereo in doubt; 68), for which the MIC came out at 0.5 mg/L (≈ 1.38 µM).

The test is the same for the next values; noted with them: Serratia marcescens; read-out: MIC.
For `C[C@H]1CN(c2nc3c(cc2F)c(=O)c(C(=O)O)cn3C(C)(C)C)C[C@H]1N`, the MIC amounted to 0.13 mg/L (≈ 0.359 µM).

As to `C[C@H]1CN(c2nc3c(cc2F)c(=O)c(C(=O)O)cn3C(C)(C)C)C[C@@H]1N`, the MIC amounted to 0.5 mg/L (≈ 1.38 µM).
